Results taken from patent US7323469B2, “7H-pyrrolo[2,3-d]pyrimidine derivatives” (Novartis AG, priority 2001, dated 2008).

SMILES | melting point
O=C(CN1CCCCC1)NCc1ccc(-c2cc3c(Nc4ccc(F)c(Cl)c4)ncnc3[nH]2)cc1 [Example 49, N-{4-[4-(3-Chloro-4-fluoro-phenylamino)-7H-pyrrolo[2,3-d]pyrimidin-6-yl]-benzyl}-2-piperidin-1-yl-acetamide] | 229 to 232 °C
CN(C)Cc1cccc(-c2cc3c(Nc4ccc(F)c(Cl)c4)ncnc3[nH]2)c1 [Example 33, (3-Chloro-4-fluoro-phenyl)-[6-(3-dimethylaminomethyl-phenyl)-7H-pyrrolo[2,3-d]pyrimidin-4-yl]-amine] | 218 to 220 °C
CCN1CCN(Cc2ccc(-c3cc4c(NCc5ccnc(OC)c5)ncnc4[nH]3)cc2)CC1 [Example 122, (2-Methoxy-pyridin-4-ylmethyl)-{6-[4-(4-ethyl-piperazin-1-ylmethyl)-phenyl]-7H-pyrrolo[2,3-d]pyrimidin-4-yl}-amine] | 210 to 212 °C
Cc1cccc(CNc2ncnc3[nH]c(-c4ccc(CN5CCCCC5)cc4)cc23)c1 [Example 107d, (3-Methyl-benzyl)-[6-(4-piperidin-1-ylmethyl-phenyl)-7H-pyrrolo[2,3-d]pyrimidin-4-yl]-amine] | 246 to 248 °C
COc1cccc(CNc2ncnc3[nH]c(-c4ccc(CN5CCCCC5)cc4)cc23)c1 [Example 107, (3-Methoxy-benzyl)-[6-(4-piperidin-1-ylmethyl-phenyl)-7H-pyrrolo[2,3-d]pyrimidin-4-yl]-amine] | 227 to 229 °C
CN(C)CC(=O)NCc1ccc(-c2cc3c(Nc4ccc(OCc5ccccc5)cc4)ncnc3[nH]2)cc1 [Example 51, N-{4-[4-(4-Benzyloxy-phenylamino)-7H-pyrrolo[2,3-d]pyrimidin-6-yl]-benzyl}-2-dimethylamino-acetamide] | 233 to 235 °C
CCN1CCN(Cc2ccc(-c3cc4c(NCc5cc[nH]c(=O)c5)ncnc4[nH]3)cc2)CC1 [Example 129, 4-({6-[4-(4-Ethyl-piperazin-1-ylmethyl)-phenyl]-7H-pyrrolo[2,3-d]pyrimidin-4-ylamino}-methyl)-1H-pyridin-2-one] | 291 to 292 °C
Clc1ccc(Cl)c(CNc2ncnc3[nH]c(-c4ccc(CN5CCCC5)cc4)cc23)c1 [Example 103, (2,5-Dichloro-benzyl)-[6-(4-pyrrolidin-1-ylmethyl-phenyl)-7H-pyrrolo[2,3-d]pyrimidin-4-yl]-amine] | 266 to 268 °C
Clc1ccc(Cl)c(CNc2ncnc3[nH]c(-c4ccc(CN5CCOCC5)cc4)cc23)c1 [Example 99, (2,5-Dichloro-benzyl)-[6-(4-morpholin-4-ylmethyl-phenyl)-7H-pyrrolo[2,3-d]pyrimidin-4-yl]-amine] | 272 to 274 °C
Cc1cccc(CNc2ncnc3[nH]c(-c4ccc(CN5CCOCC5)cc4)cc23)c1 [Example 107e, (3-Methyl-benzyl)-[6-(4-morpholin-4-ylmethyl-phenyl)-7H-pyrrolo[2,3-d]pyrimidin-4-yl]-amine] | 259 to 261 °C
CC1CN(Cc2ccc(-c3cc4c(Nc5ccc(OCc6ccccc6)cc5)ncnc4[nH]3)cc2)CC(C)N1 (centres unmarked) [Example 24, (4-Benzyloxy-phenyl)-{6-[4-(3,5-dimethyl-piperazin-1-ylmethyl)-phenyl]-7H-pyrrolo[2,3-d]pyrimidin-4-yl}-amine] | 269 to 271 °C
Cl.Clc1cccc(Nc2ncnc3[nH]c(-c4ccc(CN5CCOCC5)cc4)cc23)c1 | 278 to 280 °C
c1ccc(COc2ccc(Nc3ncnc4[nH]c(-c5ccc(CN6CCOCC6)cc5)cc34)cc2)cc1 [Example 20, (4-Benzyloxy-phenyl)-[6-(4-morpholin-4-ylmethyl-phenyl)-7H-pyrrolo[2,3-d]pyrimidin-4-yl]-amine] | 272 to 274 °C
Clc1ccc(Cl)c(CNc2ncnc3[nH]c(-c4ccc(CN5CCCCC5)cc4)cc23)c1 [Example 100, (2,5-Dichloro-benzyl)-[6-(4-piperidin-1-ylmethyl-phenyl)-7H-pyrrolo[2,3-d]pyrimidin-4-yl]-amine] | 258 to 260 °C
CN(C)CC(=O)NCc1cccc(-c2cc3c(Nc4ccc(F)c(Cl)c4)ncnc3[nH]2)c1 [Example 64, N-{3-[4-(3-Chloro-4-fluoro-phenylamino)-7H-pyrrolo[2,3-d]pyrimidin-6-yl]-benzyl}-2-dimethylamino-acetamide] | 272 to 273 °C
O=C(CN1CCCCC1)NCc1cccc(-c2cc3c(Nc4ccc(F)c(Cl)c4)ncnc3[nH]2)c1 [Example 66, N-{3-[4-(3-Chloro-4-fluoro-phenylamino)-7H-pyrrolo[2,3-d]pyrimidin-6-yl]-benzyl}-2-piperidin-1-yl-acetamide] | 252 to 254 °C
COc1cc(CNc2ncnc3[nH]c(-c4ccc(CN(C)C)cc4)cc23)ccn1 [Example 124, (2-Methoxy-pyridin-4-ylmethyl)-{6-[4-(dimethylamino-methyl)-phenyl]-7H-pyrrolo[2,3-d]pyrimidin-4-yl}-amine] | 210 to 211 °C
C[C@@H](Nc1ncnc2[nH]c(-c3ccc(CN(C)C)cc3)cc12)c1ccc(Cl)cc1 [Example 76, [(R)-1-(4-Chloro-phenyl)-ethyl]-[6-(4-dimethylaminomethyl-phenyl)-7H-pyrrolo[2,3-d]pyrimidin-4-yl]-amine] | 273 to 274 °C
CCN1CCN(Cc2ccc(-c3cc4c(NCc5cccc(Cl)c5)ncnc4[nH]3)cc2)CC1 [Example 83, (3-Chloro-benzyl)-{6-[4-(4-ethyl-piperazin-1-ylmethyl)-phenyl]-7H-pyrrolo[2,3-d]pyrimidin-4-yl}-amine] | 241 to 243 °C
COc1cccc(CNc2ncnc3[nH]c(-c4ccc(CN5CCCC5)cc4)cc23)c1 [Example 106, (3-Methoxy-benzyl)-[6-(4-pyrrolidin-1-ylmethyl-phenyl)-7H-pyrrolo[2,3-d]pyrimidin-4-yl]-amine] | 220 to 222 °C

Now from value to compound:

melting point | SMILES
263 to 266 °C | C[C@@H](Nc1ncnc2[nH]c(-c3ccc(CNC(=O)CN(C)C)cc3)cc12)c1ccccc1 [Example 44, 2-Dimethylamino-N-{4-[4-((R)-1-phenyl-ethyl-amino)-7H-pyrrolo[2,3-d]pyrimidin-6-yl]-benzyl}-acetamide]
250 to 252 °C | CCN1CCN(Cc2ccc(-c3cc4c(NCc5cccc(C)c5)ncnc4[nH]3)cc2)CC1 [Example 107j, {6-[4-(4-Ethyl-piperazin-1-ylmethyl)-phenyl]-7H-pyrrolo[2,3-d]pyrimidin-4-yl}-(3-methyl-benzyl)-amine]
244 to 246 °C | CN1CCN(Cc2ccc(-c3cc4c(NCc5cc(Cl)ccc5Cl)ncnc4[nH]3)cc2)CC1 [Example 102, (2,5-Dichloro-benzyl)-{6-[4-(4-methyl-piperazin-1-ylmethyl)-phenyl]-7H-pyrrolo[2,3-d]pyrimidin-4-yl)-amine]
251 to 252 °C | COc1ccc(Nc2ncnc3[nH]c(-c4cccc(CN5CCN(C)CC5)c4)cc23)cc1O [Example 69, 2-Methoxy-5-{6-[3-(4-methyl-piperazin-1-ylmethyl)-phenyl]-7H-pyrrolo[2,3-d]pyrimidin-4-ylamino}-phenol]
121 to 124 °C | CCN1CCN(CC(=O)NCc2ccc(-c3cc4c(N[C@H](C)c5ccccc5)ncnc4[nH]3)cc2)CC1 [Example 45, 2-(4-Ethyl-piperazin-1-yl)-N-{4-[4-((R)-1-phenyl-ethylamino)-7H-pyrrolo[2,3-d]pyrimidin-6-yl]-benzyl}-acetamide]
227 to 229 °C | CN1CCN(Cc2ccc(-c3cc4c(Nc5cccc(Cl)c5)ncnc4[nH]3)cc2)CC1.Cl.Cl
128 to 130 °C | CC1CN(Cc2cccc(-c3cc4c(N[C@H](C)c5ccccc5)ncnc4[nH]3)c2)CC(C)N1 (stereo partly drawn) [Example 32, {6-[3-(3,5-Dimethyl-piperazin-1-ylmethyl)-phenyl]-7H-pyrrolo[2,3-d]pyrimidin-4-yl}-((R)-1-phenyl-ethyl)-amine]
128 to 130 °C | CCN1CCN(Cc2cccc(-c3cc4c(N[C@H](C)c5ccccc5)ncnc4[nH]3)c2)CC1 [Example 27, {6-[3-(4-Ethyl-piperazin-1-ylmethyl)-phenyl]-7H-pyrrolo[2,3-d]pyrimidin-4-yl}-((R)-1-phenyl-ethyl)-amine]
244 to 246 °C | Cc1cccc(CNc2ncnc3[nH]c(-c4ccc(CN5CCN(C)CC5)cc4)cc23)c1 [Example 107i, (3-Methyl-benzyl)-{6-[4-(4-methyl-piperazin-1-ylmethyl)-phenyl]-7H-pyrrolo[2,3-d]pyrimidin-4-yl}-amine]
108 to 110 °C | C[C@@H](Nc1ncnc2[nH]c(-c3cccc(CN4CCCCC4)c3)cc12)c1ccccc1 [Example 30, ((R)-1-Phenyl-ethyl)-[6-(3-piperidin-1-ylmethyl-phenyl)-7H-pyrrolo[2,3-d]pyrimidin-4-yl]-amine]
112 to 115 °C | C[C@@H](Nc1ncnc2[nH]c(-c3cccc(CN4CCN(C)CC4)c3)cc12)c1ccccc1 [Example 29, {6-[3-(4-Methyl-piperazin-1-ylmethyl)-phenyl]-7H-pyrrolo[2,3-d]pyrimidin-4-yl}-((R)-1-phenyl-ethyl)-amine]
> 300 °C | Cc1ccc(Nc2ncnc3[nH]c(-c4ccc(CN5CCN(C)CC5)cc4)cc23)cc1O [Example 72, 2-Methyl-5-{6-[4-(4-methyl-piperazin-1-ylmethyl)-phenyl]-7H-pyrrolo[2,3-d]pyrimidin-4-ylamino}-phenol]
253 to 255 °C | C[C@@H](Nc1ncnc2[nH]c(-c3ccc(CNC4CCOCC4)cc3)cc12)c1ccccc1 [Example 16b, ((R)-1-Phenyl-ethyl)-(6-{4-[(tetrahydro-pyran-4-ylamino)-methyl]-phenyl}-7H-pyrrolo[2,3-d]pyrimidin-4-yl)-amine]
208 to 210 °C | CC1CN(Cc2ccc(-c3cc4c(N[C@H](C)c5ccccc5)ncnc4[nH]3)cc2)CC(C)N1 (stereo partly drawn) [Example 16, {6-[4-(3,5-Dimethyl-piperazin-1-ylmethyl)-phenyl]-7H-pyrrolo[2,3-d]pyrimidin-4-yl}-((R)-1-phenyl-ethyl)-amine]
236 to 238 °C | CCNCc1ccc(-c2cc3c(N[C@H](C)c4ccccc4)ncnc3[nH]2)cc1 [Example 16f, [6-(4-Ethylaminomethyl-phenyl)-7H-pyrrolo[2,3-d]pyrimidin-4-yl]-((R)-1-phenyl-ethyl)-amine]
